Assay results as given in patent US12331044B2, “Inhibitors of histone deacetylase useful for the treatment or prevention of HIV infection” (Merck Sharp & Dohme LLC, priority 2018, dated 2025).
Read-outs that look alike come from different tables or passages of the source. Blank lines part the entries; values can stand above or below the compound they belong to.

What was measured:
[1] = molecular target: HDAC6 (Homo sapiens (Human), UniProt Q9UBN7)
[2] = test system: KARN cells (Jurkat 2C4); test: cells; conditions: Homo sapiens
[3] = read-out: Karn EC50 nM 0.1% NHS, 0.1% normal human serum, luciferase induction, 2 μM SAHA = 100%
[4] = read-out: Karn EC50 nM 5% NHS, 5% normal human serum, luciferase induction, 2 μM SAHA = 100%

HDAC6, sequence (Q9UBN7 whole entry): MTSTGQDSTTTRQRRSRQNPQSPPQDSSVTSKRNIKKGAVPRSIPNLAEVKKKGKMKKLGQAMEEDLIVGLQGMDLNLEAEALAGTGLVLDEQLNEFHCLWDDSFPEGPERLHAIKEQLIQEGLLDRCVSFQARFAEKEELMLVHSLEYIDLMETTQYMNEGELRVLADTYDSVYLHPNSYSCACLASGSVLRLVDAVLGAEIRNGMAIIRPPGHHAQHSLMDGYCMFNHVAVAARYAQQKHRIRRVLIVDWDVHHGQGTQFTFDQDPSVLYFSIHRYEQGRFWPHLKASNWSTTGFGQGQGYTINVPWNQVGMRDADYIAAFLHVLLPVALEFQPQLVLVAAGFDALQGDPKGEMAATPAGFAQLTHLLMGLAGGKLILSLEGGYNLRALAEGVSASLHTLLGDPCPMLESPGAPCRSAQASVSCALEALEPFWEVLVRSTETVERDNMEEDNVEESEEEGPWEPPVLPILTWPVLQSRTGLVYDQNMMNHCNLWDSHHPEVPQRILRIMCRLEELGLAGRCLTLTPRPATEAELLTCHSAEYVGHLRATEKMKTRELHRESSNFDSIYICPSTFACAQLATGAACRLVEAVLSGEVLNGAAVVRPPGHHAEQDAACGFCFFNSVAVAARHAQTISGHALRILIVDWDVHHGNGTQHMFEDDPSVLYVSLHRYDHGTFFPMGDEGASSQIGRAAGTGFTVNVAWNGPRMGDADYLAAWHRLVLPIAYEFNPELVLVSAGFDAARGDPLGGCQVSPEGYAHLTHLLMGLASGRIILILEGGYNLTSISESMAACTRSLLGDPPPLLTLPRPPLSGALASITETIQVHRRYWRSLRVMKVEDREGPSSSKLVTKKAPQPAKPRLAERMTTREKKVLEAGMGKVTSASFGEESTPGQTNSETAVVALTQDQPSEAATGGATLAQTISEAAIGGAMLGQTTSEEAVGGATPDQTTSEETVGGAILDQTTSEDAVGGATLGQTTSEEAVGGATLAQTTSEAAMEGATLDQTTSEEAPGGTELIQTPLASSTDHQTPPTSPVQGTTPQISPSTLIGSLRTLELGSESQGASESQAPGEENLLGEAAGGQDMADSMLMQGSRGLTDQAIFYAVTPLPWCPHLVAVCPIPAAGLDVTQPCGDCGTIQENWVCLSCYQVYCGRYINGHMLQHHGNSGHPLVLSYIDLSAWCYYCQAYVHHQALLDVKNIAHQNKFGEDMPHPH

SMILES: COc1ncccc1-c1cnc([C@H](CCCCCC(=O)c2ncco2)NC(=O)C2CN(C)C2)o1 (stereo in doubt) [Example 104, N-(1-(5-(2-methoxypyridin-3-yl)oxazol-2-yl)-7-(oxazol-2-yl)-7-oxoheptyl)-1-methylazetidine-3-carboxamide]
IC50 [1]: > 0.9 µM
EC50 [2, 3]: 40 nM
EC50 [2, 4]: 44 nM

SMILES: O=C(CCCCC[C@H](NC(=O)c1cncs1)c1nc(-c2ccc(F)cc2)c[nH]1)c1ncco1 [Example 2, (S)-N-(1-(4-(4-fluorophenyl)-1H-imidazol-2-yl)-7-(oxazol-2-yl)-7-oxoheptyl)thiazole-5-carboxamide]
IC50 [1]: 45 µM
EC50 [2, 3]: 44 nM
EC50 [2, 4]: 97 nM

SMILES: CN1CCC(C(=O)N[C@@H](CCCCCC(=O)c2ncco2)c2nc(-c3ccc(F)cc3)c[nH]2)CC1 [Example 3, (S)-N-(1-(4-(4-fluorophenyl)-1H-imidazol-2-yl)-7-(oxazol-2-yl)-7-oxoheptyl)-1-methylpiperidine-4-carboxamide]
IC50 [1]: 45 µM
EC50 [2, 3]: 18 nM
EC50 [2, 4]: 26 nM

SMILES: O=C(CCCCC[C@H](NC(=O)[C@H]1CC12CCOCC2)c1nc(-c2ccc(F)cc2)c[nH]1)c1ncco1 [Example 5, N-((S)-1-(4-(4-fluorophenyl)-1H-imidazol-2-yl)-7-(oxazol-2-yl)-7-oxoheptyl)-6-oxaspiro[2.5]octane-1-carboxamide]
IC50 [1]: 45 µM
EC50 [2, 3]: 63 nM
EC50 [2, 4]: 130 nM

SMILES: O=C(N[C@@H](CCCCCC(=O)c1nccs1)c1nc(-c2ccc(F)cc2)c[nH]1)c1cncs1 [Example 7, (S)-N-(1-(4-(4-fluorophenyl)-1H-imidazol-2-yl)-7-oxo-7-(thiazol-2-yl)heptyl)thiazole-5-carboxamide]
IC50 [1]: 45 µM
EC50 [2, 3]: 23 nM
EC50 [2, 4]: 8400 nM

SMILES: Cc1coc(C(=O)CCCCC[C@H](NC(=O)C2CCN(C)CC2)c2nc(-c3ccc(F)cc3)c[nH]2)n1 [Example 8, (S)-N-(1-(4-(4-fluorophenyl)-1H-imidazol-2-yl)-7-(4-methyloxazol-2-yl)-7-oxoheptyl)-1-methylpiperidine-4-carboxamide]
IC50 [1]: 15 µM

SMILES: COc1nc(C)ccc1-c1c[nH]c([C@@H](N)CCCCCC(=O)c2ncco2)n1 [Example 11]
IC50 [1]: 45 µM
EC50 [2, 3]: 620 nM
EC50 [2, 4]: 670 nM

SMILES: COc1cc2nc(C)ccc2cc1-c1c[nH]c([C@@H](N)CCCCCC(=O)c2ncco2)n1 [Example 12, (S)-7-amino-7-(5-(7-methoxy-2-methylquinolin-6-yl)-1H-imidazol-2-yl)-1-(oxazol-2-yl)heptan-1-one]
IC50 [1]: 8.3 µM
EC50 [2, 3]: 66 nM
EC50 [2, 4]: 80 nM

SMILES: COc1nc2cnccc2cc1-c1c[nH]c([C@@H](N)CCCCCC(=O)c2ncco2)n1 [Example 13]
IC50 [1]: 45 µM
EC50 [2, 3]: 94 nM
EC50 [2, 4]: 140 nM

SMILES: CN(C)c1ccc2cc(-c3cnc([C@@H](N)CCCCCC(=O)c4ncco4)[nH]3)ccc2n1 [Example 18]
IC50 [1]: > 1.5 µM
EC50 [2, 3]: 93 nM
EC50 [2, 4]: 130 nM

SMILES: N[C@@H](CCCCCC(=O)c1ncco1)c1ncc(-c2ccc(-c3cnccn3)cc2)[nH]1 [Example 20]
IC50 [1]: 45 µM
EC50 [2, 3]: 450 nM
EC50 [2, 4]: 340 nM

SMILES: Cn1c(=O)ccc2cc(-c3c[nH]c([C@@H](N)CCCCCC(=O)c4ccon4)n3)ccc21 [Example 32, (S)-6-(2-(1-amino-7-(isoxazol-3-yl)-7-oxoheptyl)-1H-imidazol-4-yl)-1-methylquinolin-2(1H)-one]
IC50 [1]: 15 µM
EC50 [2, 3]: 26 nM
EC50 [2, 4]: 35 nM

SMILES: COc1cc2c(ccc(=O)n2C)cc1-c1cnc([C@@H](N)CCCCCC(=O)c2ccon2)[nH]1 [Example 35, (S)-6-(2-(1-amino-7-(isoxazol-3-yl)-7-oxoheptyl)-1H-imidazol-5-yl)-7-methoxy-1-methylquinolin-2(1H)-one]
IC50 [1]: 15 µM
EC50 [2, 3]: 72 nM
EC50 [2, 4]: 50 nM

SMILES: Cc1ccc2cc(-c3c[nH]c([C@H](CCCCCC(=O)c4ccon4)NC(=O)C4CN(C)C4)n3)ccc2n1 [Example 43]
IC50 [1]: 1.8 µM
EC50 [2, 3]: 8.5 nM
EC50 [2, 4]: 14 nM

SMILES: CN(C)CC(=O)N[C@@H](CCCCCC(=O)c1ccon1)c1nc(-c2ccccc2F)c[nH]1 [Example 47]
IC50 [1]: 9.1 µM
EC50 [2, 3]: 3.7 nM
EC50 [2, 4]: 10 nM

SMILES: Cc1cc(C(=O)CCCCC[C@H](NC(=O)C2CN(C)C2)c2nc(-c3ccccc3F)c[nH]2)no1 [Example 59]
IC50 [1]: 45 µM

SMILES: CC(C(=O)N[C@@H](CCCCCC(=O)c1ccon1)c1ncc(-c2ccccc2F)[nH]1)N(C)C (some centres unmarked) [Example 61]
IC50 [1]: > 0.9 µM
EC50 [2, 3]: 3.6 nM
EC50 [2, 4]: 5.8 nM

SMILES: CN(C)C1(C(=O)N[C@@H](CCCCCC(=O)c2ccon2)c2ncc(-c3ccccc3F)[nH]2)CC1 [Example 62]
IC50 [1]: > 0.9 µM
EC50 [2, 3]: 50 nM
EC50 [2, 4]: 100 nM

SMILES: CN(C)CC(=O)N[C@@H](CCCCCC(=O)c1ncco1)c1[nH]c(-c2ccc(F)cc2)nc1Cl [Example 90]
IC50 [1]: 26 µM
EC50 [2, 3]: 14 nM
EC50 [2, 4]: 34 nM

IC50 [1]: 45 µM
SMILES: N[C@@H](CCCCCC(=O)c1ccon1)c1ccn(-c2ccc(F)cc2)n1 [Example 120, (7S)-7-amino-7-[1-(4-fluorophenyl)-1H-pyrazol-3-yl]-1-isoxazol-3-ylheptan-1-one]

SMILES: NC(CCCCCC(=O)c1ccon1)c1cnn(-c2ccc(F)cc2)n1 (centres unmarked) [Example 123, 7-amino-7-[2-(4-fluorophenyl)-2H-1,2,3-triazol-4-yl]-1-isoxazol-3-ylheptan-1-one]
IC50 [1]: 45 µM

SMILES: Cn1cc2cc(-c3cc([C@@H](N)CCCCCC(=O)c4ccon4)no3)ccc2n1 [Example 126, (7S)-7-amino-1-isoxazol-3-yl-7-[5-(2-methyl-2H-indazol-5-yl)isoxazol-3-yl]heptan-1-one]
IC50 [1]: > 0.9 µM
EC50 [2, 3]: 170 nM
EC50 [2, 4]: 250 nM

SMILES: N[C@@H](CCCCCC(=O)c1ncco1)c1ncc(-c2cc(OC3CCC3)ccc2F)[nH]1 [Example 130, (7S)-7-amino-7-{5-[5-(cyclobutyloxy)-2-fluorophenyl]-1H-imidazol-2-yl}-1-(1,3-oxazol-2-yl)heptan-1-one]
IC50 [1]: > 0.9 µM
EC50 [2, 3]: 1600 nM
EC50 [2, 4]: 4600 nM

SMILES: N#Cc1cnc(-c2cnc([C@@H](N)CCCCCC(=O)c3ncco3)[nH]2)cn1 [Example 132, 5-{2-[(1S)-1-amino-7-(1,3-oxazol-2-yl)-7-oxoheptyl]-1H-imidazol-5-yl}pyrazine-2-carbonitrile]
EC50 [2, 3]: 25000 nM
EC50 [2, 4]: 30000 nM

SMILES: N#Cc1cncc(-c2cnc([C@@H](N)CCCCCC(=O)c3ncco3)[nH]2)n1 [Example 133, 6-{2-[(1S)-1-amino-7-(1,3-oxazol-2-yl)-7-oxoheptyl]-1H-imidazol-5-yl}pyrazine-2-carbonitrile]
EC50 [2, 3]: 23000 nM
EC50 [2, 4]: 25000 nM

SMILES: N[C@@H](CCCCCC(=O)c1ncco1)c1ncc(-c2cc(OC(F)(F)F)ccc2F)[nH]1 [Example 142, (7S)-7-amino-7-{5-[2-fluoro-5-(trifluoromethoxy)phenyl]-1H-imidazol-2-yl}-1-(1,3-oxazol-2-yl)heptan-1-one]
IC50 [1]: > 0.9 µM
EC50 [2, 3]: 1200 nM
EC50 [2, 4]: 270 nM

SMILES: COCC(=O)N[C@@H](CCCCCC(=O)c1ncco1)c1ncc(-c2cc3ccccc3nc2OC)[nH]1 [Example 147, 2-methoxy-N-[(1S)-1-[5-(2-methoxyquinolin-3-yl)-1H-imidazol-2-yl]-7-(1,3-oxazol-2-yl)-7-oxoheptyl]acetamide]
IC50 [1]: 15 µM
EC50 [2, 3]: 50 nM
EC50 [2, 4]: 490 nM

SMILES: COc1nc2ccccc2cc1-c1cnc([C@H](CCCCCC(=O)c2ncco2)NC(=O)C(C)(F)F)[nH]1 [Example 148, 2,2-difluoro-N-[(1S)-1-[5-(2-methoxyquinolin-3-yl)-1H-imidazol-2-yl]-7-(1,3-oxazol-2-yl)-7-oxoheptyl]propanamide]
IC50 [1]: 3.4 µM
EC50 [2, 3]: 54 nM
EC50 [2, 4]: 450 nM

SMILES: CCN1CCC2(CC1)C[C@@H]2C(=O)N[C@@H](CCCCCC(=O)c1ccon1)c1cc(-c2ccccc2F)on1 [Example 175, (1S)-6-ethyl-N-{(1S)-1-[5-(2-fluorophenyl)isoxazol-3-yl]-7-isoxazol-3-yl-7-oxoheptyl}-6-azaspiro[2.5]octane-1-carboxamide]
EC50 [2, 3]: 13 nM
EC50 [2, 4]: 19 nM

SMILES: CCN1CCC2(CC1)C[C@@H]2C(=O)N[C@@H](CCCCCC(=O)c1ccon1)c1cc(-c2ccc3nn(C)cc3c2)on1 [Example 176, (1S)-6-ethyl-N-{(1S)-7-isoxazol-3-yl-1-[5-(2-methyl-2H-indazol-5-yl)isoxazol-3-yl]-7-oxoheptyl}-6-azaspiro[2.5]octane-1-carboxamide]
EC50 [2, 3]: 14 nM
EC50 [2, 4]: 13 nM

SMILES: CN1CCC2(CC1)CC(C(=O)N[C@@H](CCCCCC(=O)c1ccon1)c1cc(-c3ccc4nn(C)cc4c3)on1)=NO2 [Example 177, N-{(1S)-7-isoxazol-3-yl-1-[5-(2-methyl-2H-indazol-5-yl)isoxazol-3-yl]-7-oxoheptyl}-8-methyl-1-oxa-2,8-diazaspiro[4.5]dec-2-ene-3-carboxamide]
EC50 [2, 3]: 33 nM
EC50 [2, 4]: 55 nM

SMILES: CN1CC(C(=O)N[C@@](C)(CCCCCC(=O)c2ccon2)c2ncc(-c3ccccc3F)[nH]2)C1 [Example 184, (S)-N-(2-(5-(2-fluorophenyl)-1H-imidazol-2-yl)-8-(isoxazol-3-yl)-8-oxooctan-2-yl)-1-methylazetidine-3-carboxamide]
IC50 [1]: > 0.9 µM
EC50 [2, 3]: 56 nM
EC50 [2, 4]: 57 nM

SMILES: CN1CC(C(=O)N[C@@H](CCCCCC(=O)c2ccon2)c2nc(Cl)c(-c3ccc(F)cc3)[nH]2)C1 [Example 196, (S)-N-(1-(4-chloro-5-(4-fluorophenyl)-1H-imidazol-2-yl)-7-(isoxazol-3-yl)-7-oxoheptyl)-1-methylazetidine-3-carboxamide 2,3-dihydroxysuccinate]
IC50 [1]: 4.6 µM
EC50 [2, 3]: 3.8 nM
EC50 [2, 4]: 7.5 nM
